Laboratory results published in patent US20230146455A1, “TREATMENT OF INFLAMMATORY DISEASES WITH PEPTIDES AND PHARMACEUTICAL COMPOSITIONS” (Yuyu Pharma, Inc., priority 2020, published 2023).
Several values for one entry are separate records, joined by “and”; a condition that tells them apart may be missing. Equal values may be shown once. Where a SMILES comes first, the peptide text is derived from it. [ ]: non-standard residue; d: D form. Hyp = O=C(O)[C@@H]1C[C@@H](O)CN1

System: TIMP-1
Assay: Example 9 Luminex, LPS hPBMCs: TIMP-1
Format: cell-based, human
Method: Treatment Human PBMCs were pretreated with YY-101, YDE-011 and YDE-043 or reference compound; Xiidra® at various concentration (ranging from 1 nM to 100 uM) for 2 h before stimulation. An equal volume of 0.5% DMSO was used as a vehicle control. Then, the cells were treated with LPS at 5 ug/ml. The supernatants from treated cells were harvested at 24 h and placed in a 96 well for Luminex cytokine & chemokine profiling using a Luminex 200 multiplex assay (Luminex; R&D system, USA).
The main study arm with triplicate wells per group in a 24-well plate: • 1. Blank • 2. PBMC: 0.5% DMSO • 3. PBMC+LPS (5 ug/ml) • 4. PBMC+YY-101 100 uM • 5. PBMC+YY-101 10 uM • 6. PBMC+YY-101 1 uM • 7. PBMC+YY-101 0.1 uM • 8. PBMC+YY-101 0.01 uM • 9. PBMC+LPS (5 ug/ml)+Xiidra®100 uM • 10. PBMC+LPS (5 ug/ml)+Xiidra® 10 uM • 11. PBMC+LPS (5 ug/ml)+Xiidra® 1 uM • 12. PBMC+LPS (5 ug/ml)+Xiidra®0.1 uM • 13. PBMC+LPS (5 ug/ml)+Xiidra®0.01 uM • 14. PBMC+LPS (5 ug/ml)+Xiidra®0.001 uM • 15. PBMC+LPS (5 ug/ml)+YY-101 100 uM • 16. PBMC+LPS (5 ug/ml)+YY-101 10 uM • 17. PBMC+LPS (5 ug/ml)+YY-101 1 uM • 18. PBMC+LPS (5 ug/ml)+YY-101 0.1 uM • 19. PBMC+LPS (5 ug/ml)+YY-101 0.01 uM • 20. PBMC+LPS (5 ug/ml)+YY-101 0.001 uM • 21. PBMC+LPS (5 ug/ml)+YDE-011 100 uM • 22. PBMC+LPS (5 ug/ml)+YDE-011 10 uM • 23. PBMC+LPS (5 ug/ml)+YDE-011 1 uM • 24. PBMC+LPS (5 ug/ml)+YDE-011 0.1 uM • 25. PBMC+LPS (5 ug/ml)+YDE-011 0.01 uM • 26. PBMC+LPS (5 ug/ml)+YDE-011 0.001 uM • 27. PBMC+LPS (5 ug/ml)+YDE-043 100 uM • 28. PBMC+LPS (5 ug/ml)+YDE-043 10 uM • 29. PBMC+LPS (5 ug/ml)+YDE-043 1 uM • 30. PBMC+LPS (5 ug/ml)+YDE-043 0.1 uM • 31. PBMC+LPS (5 ug/ml)+YDE-043 0.01 uM • 32. PBMC+LPS (5 ug/ml)+YDE-043 0.001 uM
Multiplex assay was used to measure 30 cytokines and chemokines. The 1:2, 1:10 and 1:200 diluted cell supernatant and serial dilution of the standard were dispensed into a 96 well plate at 50 ul/well. Then, the pre-mixed cocktail of antibody-coated magnetic beads was dispensed at 50 ul/well and incubated at room temperature for 2 h in a horizontal orbital microplate shaker at 800±500 rpm. The beads were washed using a magnetic device to prevent loss. The biotin-antibody was dispensed in 50 ul of each well and incubated at room temperature for 1 h in a shaker at 800±500 rpm. After washing, streptavidin-PE was added at 50 ul/well and incubated at room temperature for 30 min in a shaker under the same conditions. Finally, after washing, wash buffer (100 ul/well) was added to the plate and incubated in a shaker for 2 min. The Luminex™ 200 setting were set according to the manufacturer's protocol. The data was calculated with a standard five-parameter logistic nonlinear regression analysis of the data (xPonent software 4.2, USA). The levels of cytokine/chemokine are normalized to the live cell counts (1×10^5 cells/mL) and presented as concentrations per mL (pg/mL or ng/mL).

[1] = PBMC + LPS(5 ug/ml), test article 0.01 uM, single replicates
[2] = PBMC + LPS(5 ug/ml), test article 0.1 uM, Mean
[3] = PBMC + LPS(5 ug/ml), test article 0.1 uM, single replicates
[4] = PBMC + LPS(5 ug/ml), test article 1 uM, Mean
[5] = PBMC + LPS(5 ug/ml), test article 1 uM, single replicates
[6] = PBMC + LPS(5 ug/ml), test article 10 uM, Mean
[7] = PBMC + LPS(5 ug/ml), test article 10 uM, single replicates
[8] = PBMC + LPS(5 ug/ml), test article 100 uM, Mean
[9] = PBMC + LPS(5 ug/ml), test article 100 uM, single replicates
[10] = PBMC without LPS, test article 0.01 uM, Mean
[11] = PBMC without LPS, test article 0.01 uM, single replicates
[12] = PBMC without LPS, test article 0.1 uM, Mean
[13] = PBMC without LPS, test article 0.1 uM, single replicates
[14] = PBMC without LPS, test article 1 uM, Mean
[15] = PBMC without LPS, test article 1 uM, single replicates
[16] = PBMC without LPS, test article 10 uM, Mean
[17] = PBMC without LPS, test article 10 uM, single replicates
[18] = PBMC without LPS, test article 100 uM, Mean
[19] = PBMC without LPS, test article 100 uM, single replicates

Compound: CC(C)C[C@H](NC(=O)CNC(=O)[C@H](CC(=O)O)NC(=O)[C@H](CCC(N)=O)NC(=O)CNC(=O)[C@@H]1C[C@@H](O)CN1)C(=O)N[C@@H](C)C(=O)NCC(=O)N1CCC[C@H]1C(=O)N[C@@H](CCCCN)C(=O)O [YY-101] (H-[Hyp]GQDGLAGPK-OH; N-terminus and C-terminus assumed)
- TIMP-1 MFI [1]: 1569.5 and 1506.0 and 1668.0
- TIMP-1 conc/live cell [1]: 411.9 pg/10^5 and 425.4 pg/10^5 and 453.3 pg/10^5
- TIMP-1 Concentration [2]: 2599.6 pg/mL
- TIMP-1 MFI [2]: 1542.0
- TIMP-1 conc/live cell [2]: 445.1 pg/10^5
- TIMP-1 Concentration [3]: 2721.3 pg/mL and 2498.6 pg/mL and 2578.7 pg/mL
- TIMP-1 MFI [3]: 1634.5 and 1465.5 and 1526.0
- TIMP-1 conc/live cell [3]: 438.9 pg/10^5 and 480.5 pg/10^5 and 415.9 pg/10^5
- TIMP-1 Concentration [4]: 2672.9 pg/mL
- TIMP-1 MFI [4]: 1597.7
- TIMP-1 conc/live cell [4]: 410.8 pg/10^5
- TIMP-1 Concentration [5]: 2614.9 pg/mL and 2656.4 pg/mL and 2747.5 pg/mL
- TIMP-1 MFI [5]: 1553.5 and 1585.0 and 1654.5
- TIMP-1 conc/live cell [5]: 415.1 pg/10^5 and 374.1 pg/10^5 and 443.2 pg/10^5
- TIMP-1 Concentration [6]: 2693.7 pg/mL
- TIMP-1 MFI [6]: 1613.7
- TIMP-1 conc/live cell [6]: 409.5 pg/10^5
- TIMP-1 Concentration [7]: 2741.7 pg/mL and 2801.1 pg/mL and 2538.4 pg/mL
- TIMP-1 MFI [7]: 1650.0 and 1695.5 and 1495.5
- TIMP-1 conc/live cell [7]: 456.9 pg/10^5 and 437.7 pg/10^5 and 334.0 pg/10^5
- TIMP-1 Concentration [8]: 3324.7 pg/mL
- TIMP-1 MFI [8]: 2100.3
- TIMP-1 conc/live cell [8]: 574.3 pg/10^5
- TIMP-1 Concentration [9]: 3425.7 pg/mL and 3369.3 pg/mL and 3179.1 pg/mL
- TIMP-1 MFI [9]: 2179.0 and 2135.0 and 1987.0
- TIMP-1 conc/live cell [9]: 543.8 pg/10^5 and 543.4 pg/10^5 and 635.8 pg/10^5
- TIMP-1 Concentration [10]: 5306.9 pg/mL
- TIMP-1 MFI [10]: 3666.0
- TIMP-1 conc/live cell [10]: 1065.2 pg/10^5
- TIMP-1 Concentration [11]: 5042.4 pg/mL and 5571.4 pg/mL
- TIMP-1 MFI [11]: 3456.0 and 3876.0
- TIMP-1 conc/live cell [11]: 969.7 pg/10^5 and 1160.7 pg/10^5
- TIMP-1 Concentration [12]: 4907.8 pg/mL
- TIMP-1 MFI [12]: 3349.3
- TIMP-1 conc/live cell [12]: 971.6 pg/10^5
- TIMP-1 Concentration [13]: 4573.6 pg/mL and 5242.0 pg/mL
- TIMP-1 MFI [13]: 3084.0 and 3614.5
- TIMP-1 conc/live cell [13]: 1039.5 pg/10^5 and 903.8 pg/10^5
- TIMP-1 Concentration [14]: 5121.4 pg/mL
- TIMP-1 MFI [14]: 3518.8
- TIMP-1 conc/live cell [14]: 931.2 pg/10^5
- TIMP-1 Concentration [15]: 5155.8 pg/mL and 5087.1 pg/mL
- TIMP-1 MFI [15]: 3546.0 and 3491.5
- TIMP-1 conc/live cell [15]: 937.4 pg/10^5 and 924.9 pg/10^5
- TIMP-1 Concentration [16]: 6576.7 pg/mL
- TIMP-1 MFI [16]: 4666.8
- TIMP-1 conc/live cell [16]: 1047.2 pg/10^5
- TIMP-1 Concentration [17]: 8049.3 pg/mL and 5104.1 pg/mL
- TIMP-1 MFI [17]: 5828.5 and 3505.0
- TIMP-1 conc/live cell [17]: 1257.7 pg/10^5 and 836.7 pg/10^5
- TIMP-1 Concentration [18]: 6554.3 pg/mL
- TIMP-1 MFI [18]: 4654.3
- TIMP-1 conc/live cell [18]: 982.4 pg/10^5
- TIMP-1 Concentration [19]: 6886.9 pg/mL and 6221.7 pg/mL
- TIMP-1 MFI [19]: 4917.0 and 4391.5
- TIMP-1 conc/live cell [19]: 1076.1 pg/10^5 and 888.8 pg/10^5
